Experimental data reported in PubChem BioAssay (NCI).
Values joined by “and” are separate entries in the source; they are usually repeats but may differ in a detail not shown here. Equal entries are not always repeated.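 Five compound concentrations were applied to cells in 96-well plates for 48 hours; endpoints were derived by simple linear interpolation of the resulting dose-response curve. GI50 = concentration required for 50% inhibition of growth. TGI marks complete inhibition of growth.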

Assays:
Test in all cases: NCI anticancer screen, dose series, 48 h
786-0 renal = tested on: 786-0 renal
DU-145 prostate = tested on: DU-145 prostate
HCT-15 colon = tested on: HCT-15 colon
HL-60(TB) leukemia = tested on: HL-60(TB) leukemia
HT29 colon = tested on: HT29 colon
NCI/ADR-RES ovarian = tested on: NCI/ADR-RES ovarian
SK-MEL-2 melanoma = tested on: SK-MEL-2 melanoma
SNB-75 CNS = tested on: SNB-75 CNS
TK-10 renal = tested on: TK-10 renal
SR leukemia = tested on: SR leukemia

Row | SMILES | GI50 (786-0 renal) | TGI (786-0 renal) | GI50 (DU-145 prostate) | TGI (DU-145 prostate) [µM] | GI50 (HCT-15 colon) | TGI (HCT-15 colon) | GI50 (HL-60(TB) leukemia) | TGI (HL-60(TB) leukemia) | GI50 (HT29 colon) | TGI (HT29 colon) | GI50 (NCI/ADR-RES ovarian) | TGI (NCI/ADR-RES ovarian) [µM] | GI50 (SK-MEL-2 melanoma) | TGI (SK-MEL-2 melanoma) | GI50 (SNB-75 CNS) | TGI (SNB-75 CNS) | GI50 (TK-10 renal) | TGI (TK-10 renal) | TGI (SR leukemia) | GI50 (SR leukemia)
1 | CCOC(=O)C#Cc1c(CC(=O)OCC)nnn1[C@H]1O[C@@H](CO)[C@@H]2OC(C)(C)O[C@@H]21 | 6.58 µM | 19.6 µM | 10.2 µM | 21.8 | 2.52 µM | 7.02 µM | 1.86 µM | 5.71 µM | 2.13 µM | 4.3 µM | 11.5 µM | 36.5 | 18.4 µM | 34.8 µM | 10.7 µM | 22.9 µM | 1.76 µM | 3.39 µM |  | 
2 | C/C=C/C=C\C1OC(O)([C@H](CC)C(=O)NC/C=C/C=C(\C)[C@H](OC)C(C)C2OC(\C=C/C=C/C=C(\C)C(=O)c3c(O)ccn(C)c3=O)[C@H](O)[C@@H]2O)C(O)C(O)C1(C)C (some centres undefined) |  | > 100 µM |  | > 100 |  | > 100 µM |  | > 100 µM |  | > 100 µM |  | > 100 |  | > 100 µM |  | > 100 µM |  | > 100 µM |  | 
3 | C[C@@H]1C[C@@]2(O[C@@H]2C)C(=O)O[C@@H]2CCN3CC=C(COC(=O)[C@]1(C)O)[C@H]23 |  | > 100 µM |  | > 100 |  | > 100 µM |  | > 100 µM |  | > 100 µM |  | > 100 |  | > 100 µM |  | > 100 µM |  | > 100 µM |  | 
4 | Clc1nc(Cl)c(Cc2ccccc2)c(Cl)n1 |  | 10.4 µM |  | 28.7 |  | 85 µM |  | > 100 µM |  | 25.3 µM |  | > 100 |  | > 100 µM |  | 22.5 µM |  | 32.2 µM | > 100 µM | 
5 | N#Cc1nc2cc(F)c(F)cc2nc1-c1ccc(Cl)cc1 | 16.3 µM | 43.9 µM | 22.4 µM | > 82.6 | 1.44 µM | 2.76 µM | 3.43 µM | > 28.2 µM | 7.8 µM | > 100 µM | 10.3 µM | > 81.1 | 8.41 µM | 25.5 µM | 33.1 µM | 83.1 µM | 22.4 µM | 67.3 µM | 4.35 µM | 1.7 µM
6 | Cc1ccc(S(=O)(=O)Nc2nc3ccccc3nc2Nc2ccc3nsnc3c2)cc1 | 3.65 µM | > 100 µM | 5.04 µM and 4.45 µM | > 100 | 3.61 µM and 3.84 µM | > 100 µM | 2.96 µM and 2.86 µM | 14 µM and > 30 µM | 6.78 µM and 3.1 µM | > 100 µM | 3.2 µM and 3.52 µM | > 100 | 2.87 µM and 3.22 µM |  | 8.81 µM and 3.89 µM | > 100 µM | 5.18 µM and 3.14 µM | > 100 µM | 95.4 µM and > 100 µM | 7.87 µM and 4.49 µM
7 | COc1ccc2nc(C)cc(Nc3ccccc3O)c2c1 | 18.1 µM | 42.1 µM | 45.3 µM | > 100 | 32.4 µM | > 100 µM | 21 µM | 48 µM | 23.9 µM | > 100 µM | 47.2 µM | > 100 | 27.1 µM | 86.8 µM | 69.9 µM | > 100 µM | 50.6 µM | > 100 µM |  | 
8 | C=C1C(=O)O[C@H]2[C@H]1CC/C(CNS(=O)(=O)c1cccc3ccccc13)=C\CC[C@@]1(C)O[C@@H]21 | 1.61 µM | 3.27 µM | 1.11 µM | 2.43 | 1.25 µM | 2.7 µM | 1.21 µM | 3.76 µM | 1.85 µM | 3.86 µM | 5.08 µM | 20.6 | 5.18 µM | 18.3 µM |  |  | 1.48 µM | 3.08 µM | 6.11 µM | 1.31 µM
9 | O=P1(O)c2ccccc2Nc2cc(C(F)(F)F)ccc21 |  | > 100 µM |  | > 100 |  | > 100 µM |  | > 100 µM |  | > 100 µM |  | > 100 |  | > 100 µM |  | > 100 µM |  | > 100 µM | > 100 µM | 
10 | CCCN(CCC)C(=O)[C@H](CC)[C@@H]1CC[C@@H](C)[C@@H]([C@H](C)[C@@H](O)[C@@H](C)C(=O)[C@H](CC)C2O[C@]3(C=C[C@@H](O)[C@]4(CC[C@@](C)([C@H]5CC[C@](O)(CC)[C@H](C)O5)O4)O3)[C@H](C)C[C@@H]2C)O1 (some centres undefined) | 2.79 µM | 9 µM | 2.05 µM | 4.21 | 2.24 µM | 5.61 µM | 2.26 µM | 5.54 µM | 3.1 µM | 12.7 µM | 2.93 µM | 10.3 | 2.43 µM | 6.63 µM | 1.73 µM | 14.4 µM | 3.3 µM | 68.3 µM | 7.35 µM | 2.49 µM
11 | COc1ccc(/C=C/C(=O)c2cc3c(N)c(C(=O)Nc4ccccc4)sc3nc2C)cc1 | 0.276 µM | > 16 µM | 0.19 µM | > 22.9 | 0.205 µM | 8.53 µM | 0.119 µM | 0.342 µM | 0.179 µM | > 26.6 µM | 0.121 µM |  | 0.422 µM | > 50 µM | 0.0933 µM |  | 1.27 µM | > 50 µM | > 50 µM | 0.207 µM
12 | CNc1nc(N(C)C)nc(N(C)C)n1 | > 100 µM and 2790 µM | > 100 µM and 4840 µM |  | 5040 | > 100 µM and 936 µM | > 100 µM and 2770 µM | > 100 µM and 2350 µM | > 100 µM and 4200 µM | > 100 µM and 518 µM | > 100 µM and 3650 µM |  | 2650 | > 100 µM and 2150 µM | > 100 µM and 4820 µM | > 100 µM and 473 µM | > 100 µM and 1980 µM | > 100 µM and 2270 µM | > 100 µM and 4960 µM | > 100 µM | > 100 µM
13 | COc1cc(-c2oc3c(OC)c(O)c(OC)c(O)c3c(=O)c2OC)ccc1O |  | > 100 µM |  | > 100 |  | > 100 µM |  | > 100 µM |  | > 100 µM |  | > 100 |  | 74.9 µM |  |  |  | 98.9 µM | > 100 µM | 
14 | O=C1/C(=C/c2ccc(Cl)cc2)COc2ccc(O)c(O)c21 | 1.42 µM | 5.17 µM | 1.44 µM | 3.13 | 0.356 µM | 4.18 µM | 0.28 µM | 0.827 µM | 1.92 µM | 3.98 µM | 1.6 µM | 15.8 | 2.51 µM | 7.63 µM | 1.34 µM | 3.65 µM | 1.71 µM | 3.19 µM |  | 
15 | O=C(NCP(=O)(O)O)c1cccnc1 |  | > 100 µM |  | > 100 |  | > 100 µM |  | > 100 µM |  | > 100 µM |  | > 100 |  | > 100 µM |  | > 100 µM |  | > 100 µM | > 100 µM | 
